# Results taken from US6967244B1 (priority 1988, dated 2005).
# “Also recorded” adds a separate entry of the source. Like-named read-outs stand apart in the source and are kept apart here.
# Columns and labels:
# [1] = target: T1, alpha4 + beta2 neuronal nicotinic acetylcholine receptor (Rattus norvegicus, UniProt P09483+P12390); assay type: cell-based
# T1 construct: linker-coded start (ATG and a few residues from a synthetic EcoRI/HindIII linker) (N); expressed in transfected cells; host or cells: Xenopus laevis oocytes injected with in vitro transcribed capped RNA
# [2] = target: mouse muscle nicotinic acetylcholine receptor α1β1γδ (Mus musculus, UniProt P02716+P04756+P04760); assay type: cell-based
# Protocol: (§1) To examine this hypothesis, a test was made to determine whether the beta2 subunit could substitute for one of the mouse muscle receptor subunits. This was done by injecting into Xenopus oocytes various combinations of mRNA encoding the beta2 subunit and the muscle receptor subunits (α1, β1, […], and δ).
# (§2) Mature Xenopus laevis (Xenopus I, Madison, Wis.) were used as the source of oocytes. Oocytes were treated with 1 mg/ml type II collagenase (Sigma Chemical Co., St. Louis, Mo.) for two hours at room temperature. The ovarian epithelium and follicle cells were then removed by manual dissection. Each oocyte was injected with 0.5 to 5 ng of RNA transcribed and capped with diguanosine triphosphate in vitro, in a 50 nl volume of water. Injected oocytes were incubated in Barth's saline at 20° C. prior to electrophysiological recordings.
# Recordings were obtained from oocytes placed in a groove at the base of a narrow perspex chamber of 0.5 ml volume. Oocytes were perfused at up to 40 ml/min. with a control solution that consisted of 10 mM HEPES (pH 7.2), 115 mM NaCl, 1.8 mM CaCl2 2.5 mM KCl, and […] atropine. Then oocytes were perfused with agonists or antagonists (added to the control perfusing solution), followed by a wash with control solution. Voltage recordings were made with the bridge circuit of the Dagan 8500 voltage clamp unit on oocytes injected 2–7 days previously. […]
# [3] = target: T2, nAChR formed after the injection of alpha2 and beta2 mRNAs (Rattus norvegicus, UniProt P12389+P12390); assay type: cell-based
# T2 construct: only the HYP16 clone contains an open reading frame for the entire alpha2 protein; expressed in transfected cells; host or cells: Xenopus oocytes injected with in vitro transcribed mRNA
# Protocol: as §2
# (§3) Recordings were obtained from oocytes placed in a groove at the base of a narrow perspex chamber of 0.5 ml volume. Oocytes were perfused at up to 40 ml/min. with a control solution that consisted of 10 mM HEPES (pH 7.2), 115 mM NaCl, 1.8 mM CaCl2 2.5 mM KCl, and […] atropine. Then oocytes were perfused with agonists or antagonists (added to the control perfusing solution), followed by a wash with control solution. Voltage recordings were made with the bridge circuit of the Dagan 8500 voltage clamp unit on oocytes injected 2–7 days previously. The recordings were obtained at room temperature (20–25° C.) with micropipettes filled with 3M KCl. A resting potential more negative than −30 mV was required for inclusion of a particular oocyte in these studies.
# The PCX49 clone is derived from the beta2 gene and is believed to encode a non-agonist-binding subunit. (Boulter, et al., 1987; Deneris, et al., 1988). […] We tested whether oocytes injected with either alpha2 (n=22) or beta2 (n=21) mRNA alone would produce a depolarizing response to ACh.
# [4] = target: T3, receptor from mouse muscle alpha1, gamma, delta and beta2 mRNAs (Mus musculus, UniProt P02716+P04756+P04760); assay type: cell-based, mouse/rat
# T3 construct: expressed in transfected cells; host or cells: Xenopus laevis oocytes injected with in vitro transcribed capped RNA
# Protocol: as §1, §2, §3
# Experiment 1: Oocytes taken from the same animal were injected at the same time with equivalent amounts of the indicated mRNA combinations. […] Values presented are means±S.E. (n=6).
# Values, presented are means±S.E. (n=5). The complete set of mouse muscle mRNAs were not tested in this experiment.
# [5] = target: T4, alpha3 + beta2 neuronal nicotinic acetylcholine receptor (Rattus norvegicus, UniProt P04757+P12390); assay type: cell-based
# T4 construct: a complete signal peptide and the entire mature protein; expressed in transfected cells; host or cells: Xenopus laevis oocytes injected with in vitro transcribed capped RNA
# [6] = target: T5, PC12 cell receptor (Rattus norvegicus, UniProt P04757); conditions: cited from earlier work
# T5 construct: endogenous in cells; host or cells: PC12 (rat pheochromocytoma) cells
# T5 sequence (P04757 26-499): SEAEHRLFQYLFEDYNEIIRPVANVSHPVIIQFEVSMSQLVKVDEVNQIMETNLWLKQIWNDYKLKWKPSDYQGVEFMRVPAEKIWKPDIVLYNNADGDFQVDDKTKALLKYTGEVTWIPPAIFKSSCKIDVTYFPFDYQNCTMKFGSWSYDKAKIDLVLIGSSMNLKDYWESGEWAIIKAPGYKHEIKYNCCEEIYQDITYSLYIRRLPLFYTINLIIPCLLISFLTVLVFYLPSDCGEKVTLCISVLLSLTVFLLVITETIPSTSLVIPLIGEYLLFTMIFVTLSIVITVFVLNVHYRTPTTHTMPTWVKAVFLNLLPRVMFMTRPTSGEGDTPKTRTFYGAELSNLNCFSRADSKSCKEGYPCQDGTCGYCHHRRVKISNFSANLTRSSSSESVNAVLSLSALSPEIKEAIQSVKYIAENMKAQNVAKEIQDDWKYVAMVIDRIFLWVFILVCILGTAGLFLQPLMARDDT
# T3 sequence (P04760 23-519): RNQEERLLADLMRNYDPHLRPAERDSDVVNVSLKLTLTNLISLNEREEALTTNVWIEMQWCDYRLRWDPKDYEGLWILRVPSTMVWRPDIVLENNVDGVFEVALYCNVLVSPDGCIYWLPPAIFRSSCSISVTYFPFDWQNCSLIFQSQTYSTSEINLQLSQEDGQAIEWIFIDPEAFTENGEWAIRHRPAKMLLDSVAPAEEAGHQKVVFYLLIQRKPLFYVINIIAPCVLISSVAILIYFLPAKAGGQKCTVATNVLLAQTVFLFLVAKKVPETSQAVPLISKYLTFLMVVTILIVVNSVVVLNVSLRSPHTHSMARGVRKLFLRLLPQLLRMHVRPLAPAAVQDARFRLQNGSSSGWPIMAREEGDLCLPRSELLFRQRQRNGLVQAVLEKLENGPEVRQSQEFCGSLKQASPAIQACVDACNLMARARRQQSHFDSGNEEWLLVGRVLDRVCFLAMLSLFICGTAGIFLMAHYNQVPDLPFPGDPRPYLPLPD
# T3 sequence (P12390 25-500, further chain): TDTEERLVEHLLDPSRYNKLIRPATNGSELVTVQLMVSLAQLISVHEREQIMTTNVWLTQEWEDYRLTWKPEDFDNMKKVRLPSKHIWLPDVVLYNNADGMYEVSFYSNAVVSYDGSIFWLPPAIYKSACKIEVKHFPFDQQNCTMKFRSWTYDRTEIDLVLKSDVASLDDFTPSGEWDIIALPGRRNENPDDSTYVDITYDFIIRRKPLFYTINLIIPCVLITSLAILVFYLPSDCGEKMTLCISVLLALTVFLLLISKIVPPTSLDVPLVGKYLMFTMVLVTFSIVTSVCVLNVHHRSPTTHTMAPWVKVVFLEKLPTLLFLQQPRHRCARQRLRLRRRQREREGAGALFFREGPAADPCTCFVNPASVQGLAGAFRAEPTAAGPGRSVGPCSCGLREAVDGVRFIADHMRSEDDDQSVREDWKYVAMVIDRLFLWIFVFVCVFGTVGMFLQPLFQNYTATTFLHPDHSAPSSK
# T3 sequence (P04756 21-457): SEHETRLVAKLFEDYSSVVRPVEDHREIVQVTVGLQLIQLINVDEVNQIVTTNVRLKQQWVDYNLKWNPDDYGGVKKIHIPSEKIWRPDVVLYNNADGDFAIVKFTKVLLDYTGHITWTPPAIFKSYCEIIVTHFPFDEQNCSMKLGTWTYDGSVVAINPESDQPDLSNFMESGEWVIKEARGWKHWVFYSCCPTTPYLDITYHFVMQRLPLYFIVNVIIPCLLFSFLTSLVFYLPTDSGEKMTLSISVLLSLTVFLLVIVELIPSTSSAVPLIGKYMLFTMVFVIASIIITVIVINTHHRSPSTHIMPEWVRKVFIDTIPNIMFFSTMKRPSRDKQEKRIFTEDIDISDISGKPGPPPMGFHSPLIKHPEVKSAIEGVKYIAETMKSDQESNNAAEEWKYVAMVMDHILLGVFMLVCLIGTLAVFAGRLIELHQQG
# T3 sequence (P02716 25-520): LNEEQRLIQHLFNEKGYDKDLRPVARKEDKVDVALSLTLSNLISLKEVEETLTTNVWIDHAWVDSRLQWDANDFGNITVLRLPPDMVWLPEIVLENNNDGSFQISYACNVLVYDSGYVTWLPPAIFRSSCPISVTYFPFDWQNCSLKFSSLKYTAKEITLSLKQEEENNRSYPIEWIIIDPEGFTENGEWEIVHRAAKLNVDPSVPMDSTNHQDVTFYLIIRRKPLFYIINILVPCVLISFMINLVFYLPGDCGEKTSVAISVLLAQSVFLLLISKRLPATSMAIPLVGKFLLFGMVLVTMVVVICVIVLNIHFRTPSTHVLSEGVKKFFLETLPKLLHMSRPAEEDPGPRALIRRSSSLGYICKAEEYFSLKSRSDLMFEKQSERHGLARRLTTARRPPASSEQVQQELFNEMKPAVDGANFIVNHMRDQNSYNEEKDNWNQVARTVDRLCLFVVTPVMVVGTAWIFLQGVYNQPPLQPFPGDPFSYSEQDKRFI
# T2 sequence (P12390 25-500): as the sequence (P12390 25-500, further chain) above
# T2 sequence (P12389 28-511): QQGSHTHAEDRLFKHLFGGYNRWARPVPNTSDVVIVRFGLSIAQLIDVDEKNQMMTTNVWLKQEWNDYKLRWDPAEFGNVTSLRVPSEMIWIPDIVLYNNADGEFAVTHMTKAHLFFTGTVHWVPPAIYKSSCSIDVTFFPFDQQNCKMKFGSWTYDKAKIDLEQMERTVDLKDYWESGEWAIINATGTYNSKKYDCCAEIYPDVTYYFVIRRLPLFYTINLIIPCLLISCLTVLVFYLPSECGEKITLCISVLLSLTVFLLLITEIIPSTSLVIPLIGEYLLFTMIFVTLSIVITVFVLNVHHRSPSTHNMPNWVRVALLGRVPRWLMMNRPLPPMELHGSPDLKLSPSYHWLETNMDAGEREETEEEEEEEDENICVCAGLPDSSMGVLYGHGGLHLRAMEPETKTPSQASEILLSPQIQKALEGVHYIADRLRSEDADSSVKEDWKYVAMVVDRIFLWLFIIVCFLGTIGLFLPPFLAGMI
# T4 sequence (P12390 25-500): as the sequence (P12390 25-500, further chain) above
# T4 sequence (P04757 26-499): as the sequence (P04757 26-499) above
# T1 sequence (P12390 25-500): as the sequence (P12390 25-500, further chain) above
# T1 sequence (P09483 31-630): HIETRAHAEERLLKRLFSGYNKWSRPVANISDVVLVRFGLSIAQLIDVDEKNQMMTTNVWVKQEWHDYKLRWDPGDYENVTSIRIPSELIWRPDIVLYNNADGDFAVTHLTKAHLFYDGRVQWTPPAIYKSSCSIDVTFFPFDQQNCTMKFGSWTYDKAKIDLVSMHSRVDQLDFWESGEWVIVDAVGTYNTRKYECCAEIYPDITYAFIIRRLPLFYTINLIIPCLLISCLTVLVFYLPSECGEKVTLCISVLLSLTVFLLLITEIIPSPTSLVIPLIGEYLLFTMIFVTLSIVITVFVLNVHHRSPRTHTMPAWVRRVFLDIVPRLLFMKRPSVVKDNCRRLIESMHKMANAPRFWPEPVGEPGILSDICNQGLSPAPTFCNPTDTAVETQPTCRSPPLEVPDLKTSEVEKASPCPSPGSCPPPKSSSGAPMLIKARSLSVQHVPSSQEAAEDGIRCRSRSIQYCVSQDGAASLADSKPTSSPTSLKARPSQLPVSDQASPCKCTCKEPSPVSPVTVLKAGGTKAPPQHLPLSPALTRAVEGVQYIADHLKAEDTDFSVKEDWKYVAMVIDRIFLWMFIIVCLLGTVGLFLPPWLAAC
# mouse muscle nicotinic acetylcholine receptor α1β1γδ, sequence (P04760 23-519): as the sequence (P04760 23-519) above
# mouse muscle nicotinic acetylcholine receptor α1β1γδ, sequence (P09690 24-501, further chain): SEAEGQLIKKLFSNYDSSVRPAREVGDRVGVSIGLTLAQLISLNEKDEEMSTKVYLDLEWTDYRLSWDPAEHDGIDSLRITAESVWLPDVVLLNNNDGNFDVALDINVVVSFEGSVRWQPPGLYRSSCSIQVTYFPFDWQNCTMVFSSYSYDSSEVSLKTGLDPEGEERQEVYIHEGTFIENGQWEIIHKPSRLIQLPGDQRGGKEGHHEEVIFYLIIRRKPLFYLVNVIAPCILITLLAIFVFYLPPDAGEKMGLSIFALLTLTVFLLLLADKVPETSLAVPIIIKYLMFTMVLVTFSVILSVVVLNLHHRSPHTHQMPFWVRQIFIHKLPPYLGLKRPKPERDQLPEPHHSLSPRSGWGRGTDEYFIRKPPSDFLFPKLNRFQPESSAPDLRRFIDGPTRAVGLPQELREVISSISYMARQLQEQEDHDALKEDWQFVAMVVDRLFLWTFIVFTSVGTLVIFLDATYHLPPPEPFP
# mouse muscle nicotinic acetylcholine receptor α1β1γδ, sequence (P02716 25-520): as the sequence (P02716 25-520) above
# mouse muscle nicotinic acetylcholine receptor α1β1γδ, sequence (P04756 21-457): as the sequence (P04756 21-457) above
molecule,measurement,setting,value
α-bungarotoxin,Functional blockade of the acetylcholine response by toxin,[1],resistant
same,"Δ, mV After Toxin",[1],32.7 ± 6.4 mV
same,Block of the receptor by toxin,[2],blocked
same,"Δ, mV After Toxin",[3],+32 ± 2 mV
same,Block of the response to acetylcholine,[4],completely blocked
same,Functional blockade of the acetylcholine response by toxin,[5],neither of these receptors are functionally blocked; also recorded: resistant
same,"Δ, mV After Toxin",[5],24.8 ± 3.3 mV
same,Functional block of the receptor by toxin,[6],neither of these receptors are functionally blocked
COc1cc2c3cc1Oc1cc(ccc1O)C[C@@H]1c4c(cc(OC)c(O)c4Oc4ccc(cc4)C[C@@H]3N(C)CC2)CC[N+]1(C)C [d-tubocurarine],Blockade of the acetylcholine response by antagonist or toxin,[3],could be blocked
same,Δ (mV) Agonist + Antagonist,"[3]; Ach 5 μM + antagonist 100 μM, n=3",+2.0 ± 0.4 mV
same,Block of depolarizations,"[4]; alpha1, beta2, gamma, delta mRNAs, 100 mM d-tubocurarine",blocked
CN1CCCC1c1cccnc1 (centres unmarked) [nicotine],Depolarizing response to nicotine,[1],strong and reproducible membrane depolarizations; also recorded: depolarizing responses
same,Depolarizing response to nicotine,[3],strong and reproducible depolarizing responses; also recorded: elicited a depolarizing response
same,Depolarizations elicited by nicotine,[4],depolarizations could be elicited
same,Depolarizing response to nicotine,[5],strong and reproducible membrane depolarizations; also recorded: depolarizing responses
C[N+](C)(C)CCCCCC[N+](C)(C)C [hexamethonium],Blockade of the acetylcholine response by antagonist or toxin,[3],could be blocked
same,Δ (mV) Agonist + Antagonist,"[3]; Ach 1 μM + antagonist 100 μM, n=4",+0.4 ± 0.4 mV
